From patent US11827628B2, “Compositions and methods for inhibition of the JAK pathway” (Rigel Pharmaceuticals, Inc., priority 2005, dated 2023)

These molecules were tested on up-regulation of ICAM-1 (CD54) by IFNγ in A549 lung epithelial cells (assay: A549 Epithelial Line Stimulated with IFNγ (ICAM-1 surface expression, FACS)). Details: A549 epithelial line stimulated with IFNγ; ICAM-1 expression by FACS; read-out: IC50, Example 43.
Type: cell-based, human
How it was run: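 A549 cells pre-incubated 1 h with compound (30 μM to 14 nM, 5% FBS, 0.3% DMSO), then stimulated with IFNγ (75 ng/mL) for 24 h. Surface ICAM-1 stained with APC anti-CD54 and read by flow cytometry; geometric mean of live-gated events plotted against concentration for EC50.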

Row | IC50 [µM] | SMILES
1 | 12.3 | Cc1ccc(Nc2ncc(F)c(Nc3ccc(CC#N)cc3)n2)cc1S(N)(=O)=O [III-7, N2-(3-Aminosulfonyl-4-methyl)phenyl-N4-(4-cyanomethyl)phenyl-5-fluoro-2,4-pyrimidinediamine]
2 | 4.15 | NS(=O)(=O)c1cccc(Nc2ncc(F)c(Nc3cccc(CNC(=O)C4CC4)c3)n2)c1 [III-39, N2-(3-aminosulfonyl)phenyl-N4-(3-cyclopropylcarbonylaminomethyl)phenyl-5-fluoro-2,4-pyrimidinediamine]

Second part, the molecule before the results:

Row | SMILES | IC50 [µM]
3 | Cc1noc(COc2ccc(Nc3nc(Nc4ccc(S(N)(=O)=O)cc4)ncc3F)cc2)n1 [Compound I-268, N2-(4-Aminosulfonylphenyl)-5-fluoro-N4-(4-[3-methyl-1,2,4-oxadiazol-5-yl]methyleneoxyphenyl)-2,4-pyrimidinediamine] | 5.08
4 | Cc1cc(COc2ccc(Nc3nc(Nc4cc(C)c(Cl)c(S(N)(=O)=O)c4)ncc3F)cc2)no1 [Compound I-218, N2-(3-Aminosulfonyl-4-chloro-5-methylphenyl)-5-fluoro-N4-[4-(5-methylisoxazol-3-yl)methyleneoxyphenyl]-2,4-pyrimidinediamine] | 3.27
5 | CCN(CC)CCNS(=O)(=O)c1cccc(Nc2ncc(F)c(Nc3ccc(OCc4cc(C)on4)c(C)c3)n2)c1 [Compound I-244, N2-[3-(2-N,N-Diethylaminoethyl)aminosulfonylphenyl)-5-fluoro-N4-[3-methyl-4-(5-methylisoxazol-3-yl)methyleneoxyphenyl]-2,4-pyrimidinediamine] | 14.7
6 | Cc1nc(COc2ccc(Nc3nc(Nc4cccc(S(N)(=O)=O)c4)ncc3F)cc2)no1 [Compound I-276, N2-(3-Aminosulfonyl)phenyl-5-fluoro-N4-[4-(5-methyl-1,2,4-oxadiazol-3-yl)methoxy]phenyl-2,4-pyrimidinediamine] | 8.09
7 | Cc1noc(COc2ccc(Nc3nc(Nc4cc(C)c(Cl)c(S(N)(=O)=O)c4)ncc3F)cc2)n1 [Compound I-265, N2-(3-Aminosulfonyl-4-chloro-5-methylphenyl)-5-fluoro-N4-[4-(3-methyl-1,2,4-oxadiazol-5-yl)methyleneoxyphenyl]-2,4-pyrimidinediamine] | 4.08
